Measurements: article PMC8788879 (Nuclear medicine and biology, 2020)

Target: Aβ1–40 fibrils (amyloid-β) (Homo sapiens, UniProt P05067)
Type: binding

Aβ1–40 fibrils (amyloid-β), sequence (P05067 672-711): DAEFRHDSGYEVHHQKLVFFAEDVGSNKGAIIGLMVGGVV

SMILES | Ki
COc1cc(/C=C/c2cc(C)c(O)c(C)c2)ccc1/C=C/c1ccc(C(=O)O)cc1 [compound 1, 4-((E)-4-((E)-4-hydroxy-3,5-dimethylstyryl)-2-methoxystyryl) benzoic acid] | 0.0086 µM
COc1cc(/C=C/c2ccc(O)cc2)ccc1/C=C/c1ccc(O)cc1 [compound 2, methoxy-X04] | 0.0236 µM
